DBAASP
Values after ≈ are worked out from the molar mass of the structure shown. Values belong to the compound of their own block, whether it stands above or below them.

How the values were obtained:
Assay in all cases: ≥ marks a high value that may be exact or a test limit, other limits are often not marked, values filed in µg/mL are converted to µM
[1] = system: Micrococcus luteus ATCC 4698
[2] = system: Pseudomonas aeruginosa PAK
[3] = system: Staphylococcus aureus
[4] = system: Streptococcus gordonii Challis DL1
[5] = system: Streptococcus mitis ATCC 903
[6] = system: Streptococcus mutans UA159
[7] = system: Streptococcus sanguinis NY101
[8] = system: Enterobacter cloacae BCRC 10401
[9] = system: Escherichia coli BCRC 10675
[10] = system: Klebsiella aerogenes BCRC 10370
[11] = system: Klebsiella oxytoca BCRC 13985
[12] = system: Lactococcus garvieae
[13] = system: Listeria monocytogenes BCRC 14845
[14] = system: Pseudomonas aeruginosa BCRC 10944
[15] = system: Staphylococcus aureus BCRC 10780
[16] = system: Staphylococcus aureus BCRC 10781
[17] = system: Staphylococcus xylosus BCRC 12930
[18] = system: Streptococcus equinus BCRC 14729
[19] = system: Streptococcus iniae
[20] = system: Vibrio alginolyticus BCRC 12829
[21] = system: Vibrio alginolyticus
[22] = system: Vibrio anguillarum serotype O1
[23] = system: Vibrio harveyi
[24] = system: Vibrio parahaemolyticus BCRC 10806
[25] = system: Vibrio parahaemolyticus
[26] = system: Yersinia enterocolitica BCRC 13999

MIC [1]: ≥ 75 µM
Compound: CC[C@H](C)[C@@H]1NC(=O)[C@H](CO)NC(=O)[C@H](CCCCN)NC(=O)[C@@H](N)CSSC[C@@H](C(=O)NCC(=O)O)NC(=O)[C@H](CCCN=C(N)N)NC(=O)CNC(=O)[C@@H]2CCCN2C1=O [CKSIPGRCG]

MIC [2]: 9.96 µM (≈ 32 µg/mL)
MIC [3]: 19.5 µM (≈ 62.5 µg/mL)
MIC [4]: 2.49 µM (≈ 8 µg/mL)
MIC [5]: 9.96 µM (≈ 32 µg/mL)
MIC [6]: 4.98 µM (≈ 16 µg/mL)
MIC [7]: 4.98 µM (≈ 16 µg/mL)
Compound: CC[C@H](C)[C@H](NC(=O)[C@H](Cc1ccccc1)NC(=O)[C@H](Cc1cnc[nH]1)NC(=O)[C@H](CCCCN)NC(=O)[C@@H](NC(=O)[C@@H](N)Cc1ccccc1)[C@@H](C)CC)C(=O)N[C@@H](Cc1cnc[nH]1)C(=O)N[C@@H](CCCN=C(N)N)C(=O)N[C@@H](Cc1ccccc1)C(=O)N[C@@H](CO)C(=O)N[C@@H](C)C(=O)N[C@H](C(=O)N[C@@H](CC(C)C)C(=O)N[C@@H](CCC(N)=O)C(=O)N[C@@H](CC(C)C)C(=O)N[C@@H](CC(C)C)C(=O)N[C@@H](CCCCN)C(=O)N[C@@H](CCC(N)=O)C(=O)N[C@@H](CC(C)C)C(=O)N[C@@H](CC(C)C)C(=O)N[C@@H](CCCCN)C(=O)N[C@@H](CC(C)C)C(=O)N[C@@H](CC(C)C)C(=O)N[C@@H](CCCCN)C(=O)N[C@@H](CCC(N)=O)C(=O)N[C@@H](Cc1ccccc1)C(N)=O)[C@@H](C)O [FIKHFIHRFSATLQLLKQLLKLLKQF]

MIC [8]: 3.54 µM (≈ 8 µg/mL)
MIC [9]: 7.09 µM (≈ 16 µg/mL)
MIC [10]: 7.09 µM (≈ 16 µg/mL)
MIC [11]: 14.2 µM (≈ 32 µg/mL)
MIC [12]: ≥ 56.7 µM
MIC [13]: 14.2 µM (≈ 32 µg/mL)
MIC [14]: 7.09 µM (≈ 16 µg/mL)
MIC [15]: 14.2 µM (≈ 32 µg/mL)
MIC [16]: 14.2 µM (≈ 32 µg/mL)
MIC [17]: 1.77 µM (≈ 4 µg/mL)
MIC [18]: ≥ 56.7 µM
MIC [19]: ≥ 56.7 µM
MIC [20]: ≥ 56.7 µM
MIC [21]: 1.77 µM (≈ 4 µg/mL)
MIC [22]: 14.2 µM (≈ 32 µg/mL)
MIC [23]: 14.2 µM (≈ 32 µg/mL)
MIC [26]: 14.2 µM (≈ 32 µg/mL)
Compound: CC[C@H](C)[C@H](NC(=O)CN)C(=O)N[C@@H](CCCCN)C(=O)N[C@H](C(=O)N[C@@H](C)C(=O)N[C@@H](CCCCN)C(=O)N[C@@H](CCCCN)C(=O)N[C@@H](C)C(=O)N[C@H](C(=O)N[C@H](C(=O)N[C@H](C(=O)N[C@@H](C)C(=O)N[C@@H](CCCCN)C(=O)N[C@@H](CCCCN)C(=O)N[C@H](C(=O)N[C@@H](C)C(=O)N[C@@H](CCCCN)C(=O)N[C@H](C(=O)N[C@@H](Cc1ccc(O)cc1)C(=O)N[C@@H](Cc1c[nH]c2ccccc12)C(=O)O)[C@@H](C)CC)[C@@H](C)CC)[C@@H](C)CC)[C@@H](C)O)[C@@H](C)CC)[C@@H](C)CC [GIKIAKKAITIAKKIAKIYW]
MIC [24]: ≥ 56.7 µM
MIC [25]: 7.09 µM (≈ 16 µg/mL)

MIC [2]: 9.96 µM (≈ 32 µg/mL)
MIC [3]: 9.96 µM (≈ 32 µg/mL)
MIC [4]: 4.98 µM (≈ 16 µg/mL)
MIC [5]: 9.96 µM (≈ 32 µg/mL)
MIC [6]: 2.49 µM (≈ 8 µg/mL)
MIC [7]: 4.98 µM (≈ 16 µg/mL)
Compound: CC[C@H](C)[C@H](NC(=O)[C@H](Cc1ccccc1)NC(=O)[C@H](Cc1cnc[nH]1)NC(=O)[C@H](CCCCN)NC(=O)[C@@H](NC(=O)[C@H](Cc1ccccc1)NC(=O)[C@@H](NC(=O)[C@H](C)NC(=O)[C@H](CO)NC(=O)[C@H](Cc1ccccc1)NC(=O)[C@H](CCC(N)=O)NC(=O)[C@H](CCCCN)NC(=O)[C@H](CC(C)C)NC(=O)[C@H](CC(C)C)NC(=O)[C@H](CCCCN)NC(=O)[C@H](CC(C)C)NC(=O)[C@H](CC(C)C)NC(=O)[C@H](CCC(N)=O)NC(=O)[C@H](CCCCN)NC(=O)[C@H](CC(C)C)NC(=O)[C@H](CC(C)C)NC(=O)[C@H](CCC(N)=O)NC(=O)[C@@H](N)CC(C)C)[C@@H](C)O)[C@@H](C)CC)C(=O)N[C@@H](Cc1cnc[nH]1)C(=O)N[C@@H](CCCN=C(N)N)C(=O)N[C@@H](Cc1ccccc1)C(N)=O [LQLLKQLLKLLKQFSATFIKHFIHRF]
